Here are results for 2 compounds from patent publication US4409325A, “Valproate conjugation using dicarbonyls” (Syva Company, priority 1981, dated 1983).

Each structure is given as a SMILES string.

For data set [1] the following is noted: antiepileptic; cited from earlier work.
For the next data set, the system named is Antivalproate. The experiment in a line: Homogeneous enzyme immunoassay for valproate (absorbance difference). It is filed as biochemical. The note with it: difference in absorbance×2.667, 340 mn, 10 to 40 seconds. An excerpt:
As previously indicated, the antibodies and enzyme reagents prepared in accordance with the subject invention find particular use in immunoassays for the determination of valproate. A description of the method for carrying out the immunoassay, which is a homogeneous enzyme immunoassay, may be found in U.S. Pat. No. 3,817,837. The method involves combining the enzyme conjugate, the unknown sample suspected of containing valproate, an antibody for valproate in an aqueous buffered medium at temperatures in the range of about 10° to 50°, more usually from about 20° to 40° C., and determining the enzyme activity as compared to the enzyme activity of an assay medium having a known amount of valproate.
In carrying out the assay, a Gilford 300 N microsample spectrophotometer is employed with a Thermocuvette with a flow cell. All readings are made at 340 mn. The following solutions are prepared as reagents for use in the assay.
Sufficient enzyme conjugate to give
a maximum rate of ΔOD equal to
Antivalproate optimized for assay
The protocol employed for carrying out an assay is as follows: A sample, 50 μl is drawn up into a diluter and dispensed with 250 μl of the assay buffer into a one ml Croan cup. A 50 μl aliquot of the diluted sample is drawn up and dispensed with a 250 μl portion of assay buffer into a second Croan cup. Into the second Croan cup is introduced 50 μl of the antibody reagent with 250 μl of the assay buffer, followed by the addition of 50 μl of the enzyme reagent and 250 μl of the assay buffer. Immediately after the enzyme addition, the entire sample is aspirated into the flow cell. After 10 seconds, a first reading is taken, followed by a second reading, after a 40 second interval from aspiration. The results are reported as the difference in absorbance×2.667.

The conditions of data set [2]: anticonvulsant use; cited from earlier work.
The conditions of data set [3]: humans, cited from earlier work.

As for `CCCC(CCC)C(=O)[O-].[Na+]` [Valproate, sodium di-n-propylacetate], the “minimum level in serum required for therapeutic efficacy” value in data set [1] was at least 50 µg/mL. In addition, the ΔOD in the data set on Antivalproate (valproate 25 μg/ml) is reported as 630; in the data set with Antivalproate (valproate 50 μg/ml) it was 646; in the data set on Antivalproate (valproate 75 μg/ml) it was 666; in the data set with Antivalproate (valproate 100 μg/ml), 682; with Antivalproate (valproate 150 μg/ml), 714. In data set [2], the toxicity entry is “low toxicity”.
Take `CCCC(CCC)C(=O)O` [valproic acid, 2-propylpentanoic acid]: the metabolism entry in data set [3] is “metabolized in humans via oxidation predominantly at the positions β and ω to the carboxylic acid”. For the same compound, the excretion result in data set [3] (urine) is given as “eventually excreted in urine as the free acids or via glucuronide formation”.
